The structures appear in SMILES notation. Converted amounts (≈) assume the structure as drawn. A value given as a limit tells only on which side of the number the result lay.

Our source for the MIC and Ratio values is ChEMBL document CHEMBL2380271, “Synthesis and biological evaluation of a class of quinolone triazoles as potential antimicrobial agents and their interactions with calf thymus DNA” (2013).

Assay [1] deals with Staphylococcus aureus. The assay is described as follows: Antibacterial activity against methicillin-resistant Staphylococcus aureus N315 by NCCLS method. The assay is classed as functional.
Assay [2] has as its system Saccharomyces cerevisiae. Description: Antifungal activity against Saccharomyces cerevisiae by NCCLS method. The assay is classed as functional.
The test system of assay [3] is Shigella dysenteriae. Description: Antibacterial activity against Shigella dysenteriae by NCCLS method. The assay is classed as functional.
The subject of assay [4] is Escherichia coli. Description: Antibacterial activity against Escherichia coli DH52 by NCCLS method. The assay is classed as functional.
Assay [5] has as its system Aspergillus flavus. The assay is described as follows: Antifungal activity against Aspergillus flavus by NCCLS method. Format: functional.
The test system of assay [6] is Staphylococcus aureus. The assay is described as follows: Antibacterial activity against Staphylococcus aureus ATCC 25923 by NCCLS method. Format: functional.
Assay [7] has as its system Pseudomonas aeruginosa. The assay is described as follows: Antibacterial activity against Pseudomonas aeruginosa by NCCLS method. The assay is classed as functional.
In assay [8] the test system is Micrococcus luteus. The assay is described as follows: Antibacterial activity against Micrococcus luteus ATCC 4698 by NCCLS method. The assay is classed as functional.
Assay [9] concerns Salmonella typhi. Description: Antibacterial activity against Eberthella typhosa by NCCLS method. To be noted: Salmonella enterica. Format: functional, Salmonella enterica subsp. enterica serovar Typhi.
Assay [10] relates to Candida albicans. The assay is described as follows: Antifungal activity against Candida albicans by NCCLS method. Format: functional.
For assay [11], the system named is Aspergillus flavus. Description: Ratio of Fluconazole MIC to compound MIC for Aspergillus flavus. Format: functional.
Assay [12] has as its system Cyberlindnera jadinii. The assay is described as follows: Antifungal activity against Candida utilis by NCCLS method. Particulars: Williopsis jadinii. Format: functional.

As usually defined, the MIC is the smallest concentration in the dilution series that meets the test's criterion for growth inhibition. Read a high MIC as weaker potency. In the case of `CCOC(=O)c1cn(CC2CO2)c2ccc(F)cc2c1=O` (racemic), the MIC in assay [1] was found to be 4 µg/mL (≈ 13.7 µM); in assay [2] it was 2 µg/mL (≈ 6.87 µM); in assay [3], 64 µg/mL (≈ 220 µM); in [4], 64 µg/mL (≈ 220 µM); in assay [5], 1 µg/mL (≈ 3.43 µM); in assay [6] it was 32 µg/mL (≈ 110 µM). Besides, the MIC in assay [7] stood at 128 µg/mL (≈ 439 µM); in assay [8], 512 µg/mL (≈ 1760 µM); in [9], 8 µg/mL (≈ 27.5 µM); in assay [10] it was 16 µg/mL (≈ 54.9 µM); in assay [12], 256 µg/mL (≈ 879 µM). Also, the Ratio in [11] worked out at 256.

As to `CCOC(=O)c1cn(CC2CO2)c2c(Cl)cc(Cl)cc2c1=O` (racemic), the MIC in [1] is 2 µg/mL (≈ 5.84 µM); in assay [2] it was 8 µg/mL (≈ 23.4 µM); in [3] it was > 512 µg/mL; in assay [4], 32 µg/mL (≈ 93.5 µM); in [5], 0.5 µg/mL (≈ 1.46 µM); in assay [6], 1 µg/mL (≈ 2.92 µM). Also, the MIC in assay [7] was 0.5 µg/mL (≈ 1.46 µM); in assay [8], > 512 µg/mL; in assay [9], 2 µg/mL (≈ 5.84 µM); in [10], 2 µg/mL (≈ 5.84 µM); in [12] it was > 512 µg/mL. The Ratio in assay [11] was found to be 256.

As to `CCOC(=O)c1cn(CC(O)Cn2cncn2)c2c(F)cc(F)cc2c1=O` (racemic), the MIC in assay [1] was found to be 32 µg/mL (≈ 84.6 µM); in assay [2] it was 512 µg/mL (≈ 1350 µM); in assay [3] it was 32 µg/mL (≈ 84.6 µM); in [4] it was 8 µg/mL (≈ 21.1 µM); in assay [5], 64 µg/mL (≈ 169 µM); in assay [6] it was 1 µg/mL (≈ 2.64 µM). Besides, the MIC in assay [7] was 4 µg/mL (≈ 10.6 µM); in assay [8], 2 µg/mL (≈ 5.29 µM); in [9], 0.5 µg/mL (≈ 1.32 µM); in [10], 64 µg/mL (≈ 169 µM); in [12] it was > 512 µg/mL.

For the molecule `CCOC(=O)c1cn(CC(O)Cn2cncn2)c2c(F)cccc2c1=O` (racemic), the MIC in assay [1] was determined as 128 µg/mL (≈ 355 µM); in assay [2], 32 µg/mL (≈ 88.8 µM); in [3], 8 µg/mL (≈ 22.2 µM); in assay [4], 8 µg/mL (≈ 22.2 µM); in [5], 512 µg/mL (≈ 1420 µM); in assay [6], 64 µg/mL (≈ 178 µM). In addition, the MIC in [7] is 32 µg/mL (≈ 88.8 µM); in assay [8] it was 2 µg/mL (≈ 5.55 µM); in [9], 0.5 µg/mL (≈ 1.39 µM); in assay [10], 32 µg/mL (≈ 88.8 µM); in assay [12], > 512 µg/mL.

`CCOC(=O)c1cn(CC(O)Cn2cncn2)c2cc(Cl)c(F)cc2c1=O` (racemic): the MIC was 4 µg/mL (≈ 10.1 µM) in assay [1]; 512 µg/mL (≈ 1300 µM) in assay [2]; 32 µg/mL (≈ 81.1 µM) in [3]; 32 µg/mL (≈ 81.1 µM) in [4]; 16 µg/mL (≈ 40.5 µM) in assay [5]; 64 µg/mL (≈ 162 µM) in assay [6]. In addition, the MIC in assay [7] was 4 µg/mL (≈ 10.1 µM); in [8] it was 4 µg/mL (≈ 10.1 µM); in [9], 1 µg/mL (≈ 2.53 µM); in assay [10] it was 8 µg/mL (≈ 20.3 µM); in assay [12] it was > 512 µg/mL.

`CCOC(=O)c1cn(CC(O)Cn2cncn2)c2ccc(F)cc2c1=O` (racemic): the MIC came to 8 µg/mL (≈ 22.2 µM) in assay [1]; 512 µg/mL (≈ 1420 µM) in assay [2]; 64 µg/mL (≈ 178 µM) in [3]; 16 µg/mL (≈ 44.4 µM) in assay [4]; 512 µg/mL (≈ 1420 µM) in [5]; 32 µg/mL (≈ 88.8 µM) in assay [6]. Further, the MIC in assay [7] came out at 16 µg/mL (≈ 44.4 µM); in assay [8], 8 µg/mL (≈ 22.2 µM); in [9], 1 µg/mL (≈ 2.78 µM); in [10], 32 µg/mL (≈ 88.8 µM); in assay [12], 64 µg/mL (≈ 178 µM).

For `O=C(O)c1cn(CC(O)Cn2cncn2)c2c(F)cccc2c1=O` (configuration not stated), the minimum inhibitory concentration (MIC) in assay [1] amounted to 64 µg/mL (≈ 193 µM); in assay [2], 256 µg/mL (≈ 770 µM); in assay [3], 1 µg/mL (≈ 3.01 µM); in [4] it was 4 µg/mL (≈ 12 µM); in [5], 128 µg/mL (≈ 385 µM); in assay [6], 32 µg/mL (≈ 96.3 µM). In addition, the MIC in assay [7] was 8 µg/mL (≈ 24.1 µM); in assay [8], 8 µg/mL (≈ 24.1 µM); in assay [9], 64 µg/mL (≈ 193 µM); in assay [10], 16 µg/mL (≈ 48.2 µM); in [12], > 512 µg/mL.

As for `O=C(N[C@H](CO)[C@H](O)c1ccc([N+](=O)[O-])cc1)C(Cl)Cl` [CHLORAMPHENICOL], the MIC in assay [1] is 16 µg/mL (≈ 49.5 µM); in assay [2], > 512 µg/mL; in assay [3] it was 32 µg/mL (≈ 99 µM); in assay [4], 32 µg/mL (≈ 99 µM); in assay [5], > 512 µg/mL; in assay [6], 16 µg/mL (≈ 49.5 µM). Moreover, the MIC in assay [7] is 32 µg/mL (≈ 99 µM); in [8], 8 µg/mL (≈ 24.8 µM); in assay [9], 32 µg/mL (≈ 99 µM); in assay [10], > 512 µg/mL; in assay [12] it was > 512 µg/mL.

Regarding `CCOC(=O)c1cn(CC2CO2)c2ccc(C)cc2c1=O` (racemic), the MIC in [1] amounted to 16 µg/mL (≈ 55.7 µM); in [2], 64 µg/mL (≈ 223 µM); in assay [3] it was 128 µg/mL (≈ 446 µM); in assay [4] it was 128 µg/mL (≈ 446 µM); in [5] it was 16 µg/mL (≈ 55.7 µM); in assay [6], 256 µg/mL (≈ 891 µM). Moreover, the MIC worked out at 32 µg/mL (≈ 111 µM) in assay [7]; 32 µg/mL (≈ 111 µM) in assay [8]; 2 µg/mL (≈ 6.96 µM) in [9]; 2 µg/mL (≈ 6.96 µM) in [10]; 256 µg/mL (≈ 891 µM) in [12].

Take `O=C(O)c1cn(CC(O)Cn2cncn2)c2c(Cl)cc(Cl)cc2c1=O` (configuration not stated): the MIC worked out at 4 µg/mL (≈ 10.4 µM) in [1]; 128 µg/mL (≈ 334 µM) in assay [2]; 4 µg/mL (≈ 10.4 µM) in assay [3]; 64 µg/mL (≈ 167 µM) in assay [4]; 256 µg/mL (≈ 668 µM) in assay [5]; 64 µg/mL (≈ 167 µM) in [6]. The MIC in assay [7] was 8 µg/mL (≈ 20.9 µM); in assay [8], 64 µg/mL (≈ 167 µM); in [9], 16 µg/mL (≈ 41.8 µM); in assay [10] it was 32 µg/mL (≈ 83.5 µM); in assay [12], > 512 µg/mL.
